Earlier results on 2 compounds are cited in US7872019B2, “Polymorphs and amorphous form of (S)-(+)-clopidogrel bisulfate” (Cadila Healthcare Limited, priority 2003, dated 2011).

SMILES strings stand for the structures.

For data set [1], the system named is platelet aggregation. The note with it: comparison of the two enantiomers, in words.
The conditions of data set [2]: comparison of the two enantiomers, in words.

Take `COC(=O)[C@H](c1ccccc1Cl)N1CCc2sccc2C1` [dextrorotatory enantiomer of formula (I) of Clopidogrel]: the antiagregant platelet activity entry in data set [1] was “excellent antiagregant platelet activity”. On to `COC(=O)[C@@H](c1ccccc1Cl)N1CCc2sccc2C1` (single isomer, unassigned) [levorotatory enantiomer of (I)], for which, in data set [1], the antiagregant platelet activity result is recorded as “less active”. The tolerance result in data set [2] is reported as “less tolerated”.
